Like-named read-outs stand apart in the source and are kept apart here. Values belong to the compound of their own block, whether it stands above or below them.
Legend:
[1] = molecular target: T1, cloned human h-NK1 receptors expressed in CHO cells (Homo sapiens, UniProt P25103); test: Binding experiment for h-NK1 receptors ([3H]-Substance P displacement); conditions: read-out: h-NK1 pIC50 (converted)
T1 construct: expressed in transfected cells; host or cells: CHO cells
Experimental: (§1) The compounds according to the invention were investigated for interaction with various neurotransmitter receptors, ion channels and transporter binding sites using the radioligand binding technique. Membranes from tissue homogenates or from cells, expressing the receptor or transporter of interests, were incubated with a radioactively labelled substance ([^3H]- or [^125I] ligand) to label a particular receptor. […] Following incubation, labelled membranes were harvested and rinsed with excessive cold buffer to remove non-bound radioactivity by rapid filtration under suction. Membrane bound radioactivity was counted in a scintillation counter and results were expressed in counts per minute (cpm).
(§2) The compounds were dissolved in DMSO and tested at 10 concentrations ranging from 10^−10 to 10^−5 M.
(§3) The ability of the compounds according to the invention to displace [^3H]-Substance P from cloned human h-NK1 receptors expressed in CHO cells, to displace [^3H]-SR-48968 from cloned human h-NK2 receptors expressed in Sf9 cells, and to displace [^3H]-SR-142801 from cloned human h-NK3 receptors expressed in CHO cells was evaluated.

[2] = molecular target: T2, cloned human h-NK2 receptors expressed in Sf9 cells (Homo sapiens, UniProt P21452); test: Binding experiment for h-NK2 receptors ([3H]-SR-48968 displacement); conditions: [3H]-SR-48968, Sf9 cells; read-out: h-NK2 pIC50 (converted)
T2 construct: expressed in transfected cells; host or cells: Sf9 cells
T2 sequence (P21452 1-398): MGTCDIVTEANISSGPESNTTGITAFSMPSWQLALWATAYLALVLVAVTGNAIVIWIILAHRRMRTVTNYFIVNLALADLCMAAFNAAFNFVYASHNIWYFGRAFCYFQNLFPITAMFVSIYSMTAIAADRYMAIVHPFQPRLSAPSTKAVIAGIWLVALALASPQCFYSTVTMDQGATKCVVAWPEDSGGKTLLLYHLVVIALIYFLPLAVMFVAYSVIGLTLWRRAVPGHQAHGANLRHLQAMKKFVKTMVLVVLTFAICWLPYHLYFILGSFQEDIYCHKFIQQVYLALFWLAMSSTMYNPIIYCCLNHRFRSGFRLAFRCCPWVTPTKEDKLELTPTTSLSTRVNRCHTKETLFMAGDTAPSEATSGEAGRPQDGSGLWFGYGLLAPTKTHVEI
Experimental: as §1, §2, §3

[3] = test system: loperamide-induced retching; test: Antiemetic effects: loperamide-induced retching in ferrets; assay type: in vivo; conditions: for Ratio p.o./s.c. of ED50 for blockade of retching: p.o. (−2 h) over s.c. (−1 h)
Experimental: The antiemetic effects have been determined using the loperamide-induced retching model (i.e. retching induced by an opioid) in ferrets. To exclude species differences in antiemetic activiey, both compounds have also been tested for antiemetic activity against apomorphine in dogs.
Antagonism of emesis induced by the peripherally selective opioid loperamide (0.31 mg/kg, s.c.) was studied over a 1 h-period starting immediately after the emetic challenge in ferrets pretreated with test compound or solvent. In control animals pre-treated with solvent, loperamide induced pronounced retching (mean±SD: 95±39 counts; n=[…]) and, to a lesser extent, vomiting (5±4).

[4] = read-out: ED50 (95% confidence limits) for blockade of loperamide-induced retching, p.o. route (−2 h), ferrets, loperamide 0.31 mg/kg s.c., 2 h after oral administration, blockade = 0 retches
[5] = sc, read-out: ED50 for blockade of loperamide-induced retching, ferrets, loperamide 0.31 mg/kg s.c., 1 h after subcutaneous administration, blockade = 0 retches
[6] = ferrets, loperamide 0.31 mg/kg s.c., 2 h after oral administration, blockade = 0 retches
[7] = ferrets, loperamide 0.31 mg/kg s.c., 1 h after subcutaneous administration, blockade = 0 retches

T1 sequence (P25103 whole entry): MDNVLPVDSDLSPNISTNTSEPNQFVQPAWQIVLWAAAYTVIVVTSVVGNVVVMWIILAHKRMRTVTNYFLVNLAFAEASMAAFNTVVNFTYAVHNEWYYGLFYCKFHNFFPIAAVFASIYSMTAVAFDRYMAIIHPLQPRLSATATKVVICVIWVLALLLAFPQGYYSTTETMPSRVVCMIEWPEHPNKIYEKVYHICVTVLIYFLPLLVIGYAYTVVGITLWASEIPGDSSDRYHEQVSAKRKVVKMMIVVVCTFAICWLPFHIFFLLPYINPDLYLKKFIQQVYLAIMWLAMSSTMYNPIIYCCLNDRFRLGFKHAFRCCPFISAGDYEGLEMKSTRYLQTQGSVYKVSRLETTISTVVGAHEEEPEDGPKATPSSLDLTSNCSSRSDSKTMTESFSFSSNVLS

Compound: COc1ccccc1CN[C@H]1C2CCN(CC2)[C@H]1C(c1ccccc1)c1ccccc1 [CP-96345, reference compound]
- ED50 ([3]; sc, 1 h, read-out: ED50 for blockade of loperamide-induced retching, s.c. route (−1 h)): > 10 mg/kg

Compound: COc1ccc(-n2cnnn2)cc1CN[C@H]1CCCN[C@H]1c1ccccc1 [GR-203040, (2S,3S)-(2-methoxy-5-tetrazol-1-ylbenzyl)(2-phenylpiperidin-3-yl)amine, reference compound]
- Ratio p.o./s.c. of ED50 for blockade of retching ([3]; ferrets): 3.1
- ED50 [3, 4]: 0.2 mg/kg
- ED50 [3, 5]: 0.064 mg/kg

Compound: O=C(C(c1ccccc1)N1CCC(N2CCN(C3CCN(C(=O)c4cc(C(F)(F)F)cc(C(F)(F)F)c4)C(Cc4ccccc4)C3)CC2)CC1)N1CCOCC1 (stereo not shown) [Compound 6]
- IC50 [1]: 1 nM

Compound: CN(Cc1ccccc1)C(=O)C(Cc1ccc2ccccc2c1)NC(=O)[C@@H]1CCCN1C(=O)Nc1ccccc1[N+](=O)[O-] (stereo partly drawn) [SDZ-NKT-343, 2-Nitrophenylcarbamoyl-(S)-prolyl-3-(2-naphthyl)alanyl-N-benzyl-N-methylamide, reference compound]
- ED50 (95% confidence limits) for blockade of loperamide-induced retching, p.o. route (−2 h) [3, 6]: >2.5 mg/kg

Compound: C[C@@H](O[C@H]1OCCN(Cc2n[nH]nc2CN(C)C)[C@H]1c1ccc(F)cc1)c1cc(C(F)(F)F)cc(C(F)(F)F)c1 [Compound L-760735, reference compound]
- ED50 for blockade of loperamide-induced retching, s.c. route (−1 h) [3, 7]: 0.31 mg/kg

Compound: C[C@@H](O[C@H]1OCCN(Cc2n[nH]c(=O)[nH]2)[C@H]1c1ccc(F)cc1)c1cc(C(F)(F)F)cc(C(F)(F)F)c1 [Aprepitant/MK-869, Aprepitant, reference compound]
- ED50 for blockade of loperamide-induced retching, s.c. route (−1 h) [3, 7]: >1.25 mg/kg
- ED50 (95% confidence limits) for blockade of loperamide-induced retching, p.o. route (−2 h) [3, 6]: 3.1 (1.9-5.0) mg/kg
- Ratio p.o./s.c. of ED50 for blockade of retching ([3]; ferrets): <2.5

Compound: COc1ccccc1CN[C@H]1CCCN[C@H]1c1ccccc1 [CP-99994, reference compound]
- Ratio p.o./s.c. of ED50 for blockade of retching ([3]; ferrets): >16
- ED50 [3, 4]: > 10 mg/kg
- ED50 [3, 5]: 0.63 mg/kg

Compound: O=C(c1cccc(C(=O)N2CCC(N3CCN([C@H]4CCN(C(=O)c5cc(C(F)(F)F)cc(C(F)(F)F)c5)[C@H](Cc5ccccc5)C4)CC3)CC2)c1)N1CCCC1 [Compound 45]
- IC50 [1]: 0.316 nM

Now from value to compound, other results behind:

- IC50 [1]: 0.631 nM
Compound: Cc1ccc(O)c(CN2CCC(N3CCN(C4CCN(C(=O)c5cc(C(F)(F)F)cc(C(F)(F)F)c5)C(Cc5ccccc5)C4)CC3)CC2)n1 (stereo not shown) [Compound 8]

- IC50 [2]: 398 nM
- IC50 [1]: 0.794 nM
Compound: Cc1nnsc1C(=O)N1CCC(N2CCN([C@H]3CCN(C(=O)c4cc(C(F)(F)F)cc(C(F)(F)F)c4)[C@H](Cc4ccccc4)C3)CC2)CC1 [Compound 78]

- IC50 [2]: 631 nM
- IC50 [1]: 1.26 nM
Compound: Cc1nnsc1C(=O)N1CCC(N2CCN([C@H]3CCN(C(=O)c4cc(C(F)(F)F)cc(C(F)(F)F)c4)[C@H](Cc4ccccc4)C3)CC2)CC1 [Compound 142]

- IC50 [1]: 3.16 nM
Compound: O=C(c1cncc(N2CCCC2)c1)N1CCC(N2CCN(C3CCN(C(=O)c4cc(C(F)(F)F)cc(C(F)(F)F)c4)C(Cc4ccccc4)C3)CC2)CC1 (stereo not shown) [Compound 85]

- IC50 [2]: 794 nM
- IC50 [1]: 1 nM
Compound: Cc1nnsc1C(=O)N1CCC(N2CCN([C@H]3CCN(C(=O)c4cc(C(F)(F)F)cc(C(F)(F)F)c4)[C@H](Cc4ccccc4)C3)CC2)CC1 [Compound 143]

- IC50 [1]: 1 nM
Compound: O=C(C1CCC1)N1CCC(N2CCN([C@H]3CCN(C(=O)c4cc(C(F)(F)F)cc(C(F)(F)F)c4)[C@H](Cc4ccccc4)C3)CC2)CC1 [Compound 102]

- IC50 [1]: 2.51 nM
Compound: O=C(c1cccc(N2CCCC2)c1)N1CCC(N2CCN([C@H]3CCN(C(=O)c4cc(C(F)(F)F)cc(C(F)(F)F)c4)[C@H](Cc4ccccc4)C3)CC2)CC1 [Compound 42]

- IC50 [1]: 1.58 nM
Compound: O=C(c1cc(C(F)(F)F)cc(C(F)(F)F)c1)N1CC[C@H](N2CCN(C3CCN(C(=O)C4(c5ccccc5)CC4)CC3)CC2)C[C@H]1Cc1ccccc1 [Compound 108]

- IC50 [2]: 794 nM
- IC50 [1]: 1 nM
Compound: Cc1nnsc1C(=O)N1CCC(N2CCN([C@H]3CCN(C(=O)c4cc(C(F)(F)F)cc(C(F)(F)F)c4)[C@H](Cc4ccccc4)C3)CC2)CC1 [Compound 77, (2-benzyl-4-{4-[1-(4-methyl-[1,2,3]thiadiazole-5-carbonyl)-piperidin-4-yl]-piperazin-1-yl}-piperidin-I -yl)-(3,5-bis-trifluoromethyl-phenyl)-methanone]
- ratio of oral ED50 (at time of peak effect) over subcutaneous ED50 (obtained at 1 h) ([3]; ferrets): 1.1
- ED50 ([3]; ferrets, blockade (=0 retches), intravenous route, 1 h after administration, read-out: ED50 for blockade of loperamide-induced retching): 0.26 mg/kg
- ED50 ([3]; ferrets, blockade (=0 retches), oral route, 1 h after administration, read-out: ED50 for blockade of loperamide-induced retching): 0.72 mg/kg
- ED50 ([3]; ferrets, blockade (=0 retches), oral route, 2 h after administration, read-out: ED50 for blockade of loperamide-induced retching): 0.42 mg/kg
- ED50 ([3]; ferrets, blockade (=0 retches), oral route, 4 h after administration, read-out: ED50 for blockade of loperamide-induced retching): 0.77 mg/kg
- ED50 ([3]; ferrets, blockade (=0 retches), oral route, 8 h after administration, read-out: ED50 for blockade of loperamide-induced retching): 0.34 mg/kg
- ED50 ([3]; ferrets, blockade (=0 retches), oral route, 16 h after administration, read-out: ED50 for blockade of loperamide-induced retching): 1.66 mg/kg
- ED50 ([3]; ferrets, blockade (=0 retches), oral route, 32 h after administration, read-out: ED50 for blockade of loperamide-induced retching): > 2.5 mg/kg
- ED50 ([3]; ferrets, inhibition (<20 retches), intravenous route, 1 h after administration, read-out: ED50 for inhibition of loperamide-induced retching): 0.15 mg/kg
- ED50 ([3]; ferrets, inhibition (<20 retches), oral route, 1 h after administration, read-out: ED50 for inhibition of loperamide-induced retching): 0.31 mg/kg
- ED50 ([3]; ferrets, inhibition (<20 retches), oral route, 2 h after administration, read-out: ED50 for inhibition of loperamide-induced retching): 0.08 mg/kg
- ED50 ([3]; ferrets, inhibition (<20 retches), oral route, 4 h after administration, read-out: ED50 for inhibition of loperamide-induced retching): 0.26 mg/kg
- ED50 ([3]; ferrets, inhibition (<20 retches), oral route, 8 h after administration, read-out: ED50 for inhibition of loperamide-induced retching): 0.29 mg/kg
- ED50 ([3]; ferrets, inhibition (<20 retches), oral route, 16 h after administration, read-out: ED50 for inhibition of loperamide-induced retching): 0.73 mg/kg
- ED50 ([3]; ferrets, inhibition (<20 retches), oral route, 32 h after administration, read-out: ED50 for inhibition of loperamide-induced retching): ~2.5 mg/kg
- ED50 ([3]; ferrets, oral administration, time of peak effect, read-out: graphically estimated peak-effect ED50 for blockade of retching (=0 retches)): 0.34 mg/kg
- duration of action ([3]; ferrets, oral, at 4 times the peak-effect dose): 16 h
- Ratio p.o./s.c. of ED50 for blockade of retching ([3]; ferrets): 1.3
- ED50 ([3]; iv, read-out: ED50 for blockade of retching 1 h after i.v. injection, ferrets, i.v., 1 h): 0.26 mg/kg
- ED50 ([3]; iv, read-out: ED50 for inhibition of retching 1 h after i.v. injection, ferrets, i.v., 1 h): 0.15 mg/kg
- ED50 [3, 4]: 0.42 mg/kg
- ED50 ([3]; read-out: graphically estimated peak-effect ED50 for inhibition of retching (<20 retches), ferrets, oral administration, time of peak effect): 0.16 mg/kg
- ED50 [3, 5]: 0.32 mg/kg
- ED50 ([3]; sc, ferrets, blockade (=0 retches), subcutaneous route, 1 h after administration, read-out: ED50 for blockade of loperamide-induced retching): 0.32 mg/kg
- ED50 ([3]; sc, ferrets, inhibition (<20 retches), subcutaneous route, 1 h after administration, read-out: ED50 for inhibition of loperamide-induced retching): 0.18 mg/kg
- ED50 ([3]; sc, ferrets, s.c., 1 h, <20 retches, read-out: ED50 for inhibition of retching one hour after s.c. injection): 0.18 mg/kg
- ED50 ([3]; sc, ferrets, s.c., 1 h, =0 retches, read-out: ED50 for complete blockade of retching one hour after s.c. injection): 0.32 mg/kg

- IC50 [1]: 0.1 nM
Compound: O=C(/C=C/c1cccnc1)N1CCC(N2CCN([C@H]3CCN(C(=O)c4cc(C(F)(F)F)cc(C(F)(F)F)c4)[C@H](Cc4ccccc4)C3)CC2)CC1 [Compound 110]

— patent US20060128721A1, “Novel formulations of opioid-based treatments of pain comprising substituted 1,4-di-piperidin-4-yl-piperazine derivatives” (priority 2003, published 2006)
